From patent US7842671B1, “Peptidomimetic inhibitors of STAT activity and uses thereof” (University of South Florida, priority 2003, dated 2010)
Square brackets hold non-standard residues; d marks the D form. Ends that are not written are not given here. pY = N[C@@H](Cc1ccc(OP(=O)(O)O)cc1)C(=O)O

Tests used:
MDA-MB-435 = assay type: cell-based, human; conditions: 1 mM, MDA-MB-435, four days
Protocol: (§1) Cell proliferation, soft-agar growth and Apo-BrdU labeling studies. Proliferating fibroblasts and human tumor cells were counted by phase-contrast microscopy for viable cells (using tyrpan blue exclusion). Colony formation assays in six-well dishes and quantification of colonies by iodonitrotetrazolium violet have been previously described (Turkson, J. et al. (1999)). Treatment of cells with inhibitors was initiated 1 day after seeding cells by adding 75 μl of medium with or without inhibitor, and repeated every two to three days. Apoptosis was measured by Apo-BrdU labeling and following the supplier's (PharMingen; San Diego, Calif.) instructions.
(§2) Stat3 has an essential role in cell proliferation, and constitutively-active Stat3 is required for growth of transformed and tumor cells that harbor aberrant Stat3 signaling. Studies were performed to determine the effects of the peptidomimetic-mediated inhibition of Stat3 on cell proliferation using trypan blue exclusion for viable cell counts.

MDA-MB-231 = assay type: cell-based, human; conditions: 1 mM, MDA-MB-231, four days
Protocol: as §1, §2

Stat3 = Stat3 (Mus musculus, UniProt P42227); design: nuclear extracts prepared from v-Src-transformed NIH3T3/v-Src; endogenous in cells; host or cells: NIH3T3/v-Src; conditions: Turkson J. et al. (2001); cited from earlier work
NIH3T3/v-Src [1] = assay type: cell-based, mouse; conditions: 1 mM, four days
Protocol: as §1, §2

NIH3T3/v-Src [2] = test: Apo-BrdU labeling and flow cytometry for apoptotic cells; assay type: cell-based, mouse; conditions: 48 h
Protocol: as §1
(§3) Because one of the functions of Stat3 is to protect transformed or tumor cells from apoptosis (Catlett-Falcone, R. et al. (1999b); Epling-Burnette, P. K. et al. (2001); Grandis, J. R. et al. (2000); Bowman, T. et al. (2000b); Bromberg, J. F. et al. (1999)), the ability of peptidomimetics of the invention (and PY*LKTK-MTS for comparison) (SEQ ID NO. 1) to induce apoptosis in Stat3-dependent transformed fibroblasts was evaluated. Viral Src-transformed NIH3T3/v-Src fibroblasts were treated with or without compounds for 48 h. Treated cells were then labeled with Apo-BrdU (PharMingen; San Diego, Calif.) for detection of DNA breaks.

NIH3T3 = test: as above; assay type: cell-based, mouse; conditions: NIH3T3, 1 mM, 48 h, flow cytometry
Protocol: as §1, §3

Stat3, sequence (P42227 whole entry): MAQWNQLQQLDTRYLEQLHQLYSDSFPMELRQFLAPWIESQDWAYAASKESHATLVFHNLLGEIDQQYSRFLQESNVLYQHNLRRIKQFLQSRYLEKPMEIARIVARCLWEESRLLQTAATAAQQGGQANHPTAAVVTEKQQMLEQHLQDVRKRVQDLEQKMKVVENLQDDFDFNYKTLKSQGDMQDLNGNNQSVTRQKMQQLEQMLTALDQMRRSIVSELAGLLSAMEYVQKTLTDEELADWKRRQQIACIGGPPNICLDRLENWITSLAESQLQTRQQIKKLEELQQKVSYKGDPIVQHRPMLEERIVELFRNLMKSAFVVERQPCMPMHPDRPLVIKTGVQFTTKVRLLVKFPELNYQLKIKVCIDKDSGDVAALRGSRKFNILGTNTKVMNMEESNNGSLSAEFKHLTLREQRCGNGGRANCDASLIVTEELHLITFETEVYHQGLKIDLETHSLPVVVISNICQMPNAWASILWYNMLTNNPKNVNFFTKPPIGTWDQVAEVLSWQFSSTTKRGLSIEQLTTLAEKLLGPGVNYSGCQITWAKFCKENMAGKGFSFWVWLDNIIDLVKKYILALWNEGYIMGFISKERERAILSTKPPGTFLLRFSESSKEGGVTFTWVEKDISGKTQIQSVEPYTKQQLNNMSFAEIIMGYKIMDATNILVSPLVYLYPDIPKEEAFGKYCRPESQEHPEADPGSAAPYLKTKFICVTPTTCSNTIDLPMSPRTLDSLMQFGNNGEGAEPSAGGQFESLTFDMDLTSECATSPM

For “PY*LKTK-AAVLLPVLLAAP (P[pY]LKTKAAVLLPVLLAAP) [PY*LKTK-MTS]”, the cell proliferation (MDA-MB-435) is given as “significantly suppresses proliferation”, the cell proliferation (MDA-MB-231) is given as “significantly suppresses proliferation” and the “constitutive Stat3 activation in Src-transformed fibroblasts” value (Stat3) is given as “inhibits constitutive Stat3 activation”. For the same substance, the cell proliferation (NIH3T3/v-Src [1]) was “significantly suppresses proliferation”, the “percent of apoptotic cells” value (NIH3T3/v-Src [2]; NIH3T3/v-Src, 1 mM, Apo-BrdU, flow cytometry) was 27.6% and the “incorporated BrdUTP compared to controls (in words)” value (NIH3T3/v-Src [2]; Src-transformed fibroblasts) was “dramatic increases in incorporated BrdUTP”. The “percent of apoptotic cells” value (NIH3T3) was 3.7%.
